pIC50, pKd: −log10 of the molar value. Activity calls are given as the source filed them. The rule behind the calls is not given here.
Legend:
[1] = system: U-937; assay: Potentiation of sunitinib-induced antileukemic activity against human U-937 cells at 4.3 uM in presence of bone-marrow derived stromal cell-conditioned medium; format: functional, cell-based
[2] = system: CCRF-CEM; assay: Potentiation of dexamethasone-induced antileukemic activity against human CCRF-CEM cells at 4.3 uM in presence of bone-marrow derived stromal cell-conditioned medium; format: functional, cell-based
[3] = target: Bromodomain-containing protein 3 (Homo sapiens, UniProt Q15059); assay: Inhibition of BRD3-BD2 (unknown origin) assessed as dissociation constant by ITC method
[4] = system: U-937; assay: Potentiation of EPZ5676-induced antileukemic activity against human U-937 cells at 4.3 uM in presence of bone-marrow derived stromal cell-conditioned medium; format: functional, cell-based
[5] = system: U-937; assay: Potentiation of temsirolimus-induced antileukemic activity against human U-937 cells at 4.3 uM in presence of bone-marrow derived stromal cell-conditioned medium; format: functional, cell-based
[6] = system: U-937; assay: Potentiation of trametinib-induced antileukemic activity against human U-937 cells at 4.3 uM in presence of bone-marrow derived stromal cell-conditioned medium; format: functional, cell-based
[7] = system: MOLM-14; assay: Downregulation of Myc expression in human MOLM-14 cells incubated for 2 hrs by RT-PCR analysis; format: functional, cell-based; conditions: dose 5.0 µM
[8] = system: MOLM-14; assay: Potentiation of idelalisib-induced antileukemic activity against human MOLM-14 cells at 4.3 uM in presence of bone-marrow derived stromal cell-conditioned medium; format: functional, cell-based
[9] = system: CCRF-CEM; assay: Potentiation of vincristine-induced antileukemic activity against human CCRF-CEM cells at 4.3 uM in presence of bone-marrow derived stromal cell-conditioned medium; format: functional, cell-based
[10] = system: CCRF-CEM; assay: Potentiation of bosutinib-induced antileukemic activity against human CCRF-CEM cells at 4.3 uM in presence of bone-marrow derived stromal cell-conditioned medium; format: functional, cell-based
[11] = system: U-937; assay: Potentiation of panobinostat-induced antileukemic activity against human U-937 cells at 4.3 uM in presence of bone-marrow derived stromal cell-conditioned medium; format: functional, cell-based
[12] = system: MOLM-14; assay: Potentiation of topotecan-induced antileukemic activity against human MOLM-14 cells at 4.3 uM in presence of bone-marrow derived stromal cell-conditioned medium; format: functional, cell-based
[13] = system: CCRF-CEM; assay: Potentiation of crenolatinib-induced antileukemic activity against human CCRF-CEM cells at 4.3 uM in presence of bone-marrow derived stromal cell-conditioned medium; format: functional, cell-based
[14] = target: T1, Bromodomain-containing protein 2 (Homo sapiens, UniProt P25440); assay: Inhibition of BRD2-BD1 (unknown origin) incubated for 6 hrs by HTRF method
[15] = system: U-937; assay: Potentiation of crenolatinib-induced antileukemic activity against human U-937 cells at 4.3 uM in presence of bone-marrow derived stromal cell-conditioned medium; format: functional, cell-based
[16] = system: U-937; assay: Potentiation of palbociclib-induced antileukemic activity against human U-937 cells at 4.3 uM in presence of bone-marrow derived stromal cell-conditioned medium; format: functional, cell-based
[17] = system: MOLM-14; assay: Potentiation of etoposide-induced antileukemic activity against human MOLM-14 cells at 4.3 uM in presence of bone-marrow derived stromal cell-conditioned medium; format: functional, cell-based
[18] = system: CCRF-CEM; assay: Potentiation of gileritinib-induced antileukemic activity against human CCRF-CEM cells at 4.3 uM in presence of bone-marrow derived stromal cell-conditioned medium; format: functional, cell-based
[19] = system: U-937; assay: Potentiation of vermurafenib-induced antileukemic activity against human U-937 cells at 4.3 uM in presence of bone-marrow derived stromal cell-conditioned medium; format: functional, cell-based
[20] = system: MOLM-14; assay: Potentiation of ruxolitinib-induced antileukemic activity against human MOLM-14 cells at 4.3 uM in presence of bone-marrow derived stromal cell-conditioned medium; format: functional, cell-based
[21] = system: U-937; assay: Potentiation of bleomycine-induced antileukemic activity against human U-937 cells at 4.3 uM in presence of bone-marrow derived stromal cell-conditioned medium; format: functional, cell-based
[22] = system: CCRF-CEM; assay: Potentiation of carfilzomib-induced antileukemic activity against human CCRF-CEM cells at 4.3 uM in presence of bone-marrow derived stromal cell-conditioned medium; format: functional, cell-based
[23] = system: MOLM-14; assay: Potentiation of tipifarnib-induced antileukemic activity against human MOLM-14 cells at 4.3 uM in presence of bone-marrow derived stromal cell-conditioned medium; format: functional, cell-based
[24] = system: MOLM-14; assay: Potentiation of carfilzomib-induced antileukemic activity against human MOLM-14 cells at 4.3 uM in presence of bone-marrow derived stromal cell-conditioned medium; format: functional, cell-based
[25] = system: U-937; assay: Potentiation of 17AAG-induced antileukemic activity against human U-937 cells at 4.3 uM in presence of bone-marrow derived stromal cell-conditioned medium; format: functional, cell-based
[26] = system: CCRF-CEM; assay: Potentiation of gefitinib-induced antileukemic activity against human CCRF-CEM cells at 4.3 uM in presence of bone-marrow derived stromal cell-conditioned medium; format: functional, cell-based
[27] = system: MOLM-14; assay: Potentiation of idarubicin-induced antileukemic activity against human MOLM-14 cells at 4.3 uM in presence of bone-marrow derived stromal cell-conditioned medium; format: functional, cell-based
[28] = target: T1, Bromodomain-containing protein 2; assay: Inhibition of BRD2-BD2 (unknown origin) incubated for 6 hrs by HTRF method
[29] = system: U-937; assay: Potentiation of volasertib-induced antileukemic activity against human U-937 cells at 4.3 uM in presence of bone-marrow derived stromal cell-conditioned medium; format: functional, cell-based
[30] = system: MOLM-14; assay: Potentiation of BKM120-induced antileukemic activity against human MOLM-14 cells at 4.3 uM in presence of bone-marrow derived stromal cell-conditioned medium; format: functional, cell-based
[31] = system: CCRF-CEM; assay: Potentiation of GSK2879552-induced antileukemic activity against human CCRF-CEM cells at 4.3 uM in presence of bone-marrow derived stromal cell-conditioned medium; format: functional, cell-based
[32] = system: CCRF-CEM; assay: Potentiation of niotinib-induced antileukemic activity against human CCRF-CEM cells at 4.3 uM in presence of bone-marrow derived stromal cell-conditioned medium; format: functional, cell-based
[33] = system: U-937; assay: Potentiation of AC-4-130-induced antileukemic activity against human U-937 cells at 4.3 uM in presence of bone-marrow derived stromal cell-conditioned medium; format: functional, cell-based
[34] = system: MOLM-14; assay: Potentiation of AC-4-130-induced antileukemic activity against human MOLM-14 cells at 4.3 uM in presence of bone-marrow derived stromal cell-conditioned medium; format: functional, cell-based
[35] = system: U-937; assay: Potentiation of prima1-induced antileukemic activity against human U-937 cells at 4.3 uM in presence of bone-marrow derived stromal cell-conditioned medium; format: functional, cell-based
[36] = system: U-937; assay: Potentiation of SGI-110-induced antileukemic activity against human U-937 cells at 4.3 uM in presence of bone-marrow derived stromal cell-conditioned medium; format: functional, cell-based
[37] = system: CCRF-CEM; assay: Potentiation of midostaurin-induced antileukemic activity against human CCRF-CEM cells at 4.3 uM in presence of bone-marrow derived stromal cell-conditioned medium; format: functional, cell-based
[38] = system: CCRF-CEM; assay: Potentiation of rigosertib-induced antileukemic activity against human CCRF-CEM cells at 4.3 uM in presence of bone-marrow derived stromal cell-conditioned medium; format: functional, cell-based
[39] = system: CCRF-CEM; assay: Potentiation of vermurafenib-induced antileukemic activity against human CCRF-CEM cells at 4.3 uM in presence of bone-marrow derived stromal cell-conditioned medium; format: functional, cell-based
[40] = system: MOLM-14; assay: Potentiation of venetoclax-induced antileukemic activity against human MOLM-14 cells at 4.3 uM in presence of bone-marrow derived stromal cell-conditioned medium; format: functional, cell-based
[41] = system: CCRF-CEM; assay: Potentiation of -mastinib -induced antileukemic activity against human CCRF-CEM cells at 4.3 uM in presence of bone-marrow derived stromal cell-conditioned medium; format: functional, cell-based
[42] = system: MOLM-14; assay: Potentiation of bleomycine-induced antileukemic activity against human MOLM-14 cells at 4.3 uM in presence of bone-marrow derived stromal cell-conditioned medium; format: functional, cell-based

T1 sequence (P25440 whole entry): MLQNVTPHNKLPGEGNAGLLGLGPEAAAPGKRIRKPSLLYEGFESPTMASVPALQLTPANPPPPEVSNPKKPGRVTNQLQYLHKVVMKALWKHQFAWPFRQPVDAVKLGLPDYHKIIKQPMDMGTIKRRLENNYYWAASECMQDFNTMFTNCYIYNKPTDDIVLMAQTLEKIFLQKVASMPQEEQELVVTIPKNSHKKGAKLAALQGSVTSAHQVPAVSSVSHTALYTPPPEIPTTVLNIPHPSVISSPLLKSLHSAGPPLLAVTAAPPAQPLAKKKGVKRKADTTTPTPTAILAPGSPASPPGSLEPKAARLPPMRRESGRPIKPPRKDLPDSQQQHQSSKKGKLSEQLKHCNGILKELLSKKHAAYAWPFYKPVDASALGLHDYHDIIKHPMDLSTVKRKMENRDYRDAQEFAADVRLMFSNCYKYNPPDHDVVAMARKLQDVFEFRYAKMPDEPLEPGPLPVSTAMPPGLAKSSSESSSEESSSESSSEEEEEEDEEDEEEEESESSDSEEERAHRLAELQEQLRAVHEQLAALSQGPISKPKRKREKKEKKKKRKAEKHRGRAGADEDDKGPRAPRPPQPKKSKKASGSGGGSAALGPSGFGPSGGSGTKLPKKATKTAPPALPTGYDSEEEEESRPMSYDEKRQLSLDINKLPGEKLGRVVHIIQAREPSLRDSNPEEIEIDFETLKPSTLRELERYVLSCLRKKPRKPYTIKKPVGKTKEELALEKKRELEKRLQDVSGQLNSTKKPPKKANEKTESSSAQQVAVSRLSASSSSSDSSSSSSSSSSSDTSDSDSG
Bromodomain-containing protein 3, sequence (Q15059 whole entry): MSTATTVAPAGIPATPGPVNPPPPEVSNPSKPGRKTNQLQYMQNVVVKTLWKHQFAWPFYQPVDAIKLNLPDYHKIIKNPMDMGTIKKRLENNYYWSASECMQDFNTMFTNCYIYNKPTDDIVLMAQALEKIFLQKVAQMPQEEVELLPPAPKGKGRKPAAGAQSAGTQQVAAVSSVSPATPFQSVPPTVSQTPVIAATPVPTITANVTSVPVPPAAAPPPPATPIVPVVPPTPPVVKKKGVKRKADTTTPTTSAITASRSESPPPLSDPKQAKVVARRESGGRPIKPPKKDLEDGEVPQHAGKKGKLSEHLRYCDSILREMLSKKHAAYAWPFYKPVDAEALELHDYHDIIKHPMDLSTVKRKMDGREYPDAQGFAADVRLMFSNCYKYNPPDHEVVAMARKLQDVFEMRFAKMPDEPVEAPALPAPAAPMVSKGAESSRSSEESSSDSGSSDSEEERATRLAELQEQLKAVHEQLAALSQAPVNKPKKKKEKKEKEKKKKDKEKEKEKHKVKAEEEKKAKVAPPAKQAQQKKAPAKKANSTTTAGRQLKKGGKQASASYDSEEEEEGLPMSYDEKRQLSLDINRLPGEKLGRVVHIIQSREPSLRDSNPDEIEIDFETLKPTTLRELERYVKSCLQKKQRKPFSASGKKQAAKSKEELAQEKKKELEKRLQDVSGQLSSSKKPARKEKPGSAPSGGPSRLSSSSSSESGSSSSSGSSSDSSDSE

In the case of `CC(=O)N1CCc2c(sc3nc(SCC(=O)Nc4cccnc4C)n(Cc4ccco4)c(=O)c23)C1`, the Activity [1] was “inactive”, the Activity [2] was “inactive” and the pKd [3] was 6.82. The Activity [4] was “inactive”, the Activity [5] was “inactive” and the Activity [6] was “inactive”. For the same molecule, the Activity [7] was “Dose-Dependent Effect”, the Activity [8] was “inactive” and the Activity [9] was “inactive”. The Activity [10] was “inactive”, the Activity [11] was “inactive” and the Activity [12] was “inactive”. For the same molecule, the Activity [13] was “inactive”, the pIC50 [14] was 5.33 and the Activity [15] was “inactive”. For the same molecule, the Activity [16] was “inactive”, the Activity [17] was “inactive” and the Activity [18] was “inactive”. For the same molecule, the Activity [19] was “inactive”, the Activity [20] was “inactive” and the Activity [21] was “inactive”. For the same molecule, the Activity [22] was “inactive”, the Activity [23] was “inactive” and the Activity [24] was “inactive”. For the same molecule, the Activity [25] was “inactive”, the Activity [26] was “inactive” and the Activity [27] was “inactive”. For the same molecule, the pIC50 [28] was 7.15, the Activity [29] was “inactive” and the Activity [30] was “inactive”. For the same molecule, the Activity [31] was “inactive”, the Activity [32] was “inactive” and the Activity [33] was “inactive”. For the same molecule, the Activity [34] was “inactive”, the Activity [35] was “inactive” and the Activity [36] was “inactive”. For the same molecule, the Activity [37] was “inactive”, the Activity [38] was “inactive” and the Activity [39] was “inactive”. The Activity [40] was “inactive”, the Activity [41] was “inactive” and the Activity [42] was “inactive”.
